The values that follow come from patent US20190321311A1, “Cancer Treatment by Simultaneous Targeting Energy Metabolism and Intracellular pH” (Deutsches Krebsforschungszentrum, priority 2016, published 2019).

One experiment has as its system Mouse melanoma B16F10. The experiment is described as follows: Cell viability assay, CellTiter-Glo, B16F10. To be noted: Mus musculus, B16-F10, 48 h. Here is the method:
(§1) Indicated cells were treated with indicated drug combinations for 48 h or as indicated in conditions imitating tumor environment—RPMI supplemented with 10% FCS and 20 mM PIPES, adjusted to pH 6.5. After treatment, cells were analyzed for cell viability: • using CellTiter-Blue® Cell Viability Assay, Promega according to manufacturer recommendations. For each treatment, the fraction (%) of viable cells are indicated. Untreated viable cells were set to 100%. Average data of 2 independent experiments are presented. Each independent experiment contained 4 biological replicates for each condition. • using CellTiter-Glo® Cell Viability Assay, Promega according manufacturer recommendations. For each treatment the fraction (%) of viable cells are indicated. Untreated viable cells were set to 100%. Each measurement represents the mean value of 4 biological replicates for each condition.
(In ATP-based viability assays light output follows the ATP content of the culture.)

A further experiment relates to Lung cancer H1975. The experiment is described as follows: Cell viability assay, CellTiter-Glo, H1975. As to conditions: Homo sapiens, NCI-H1975, 72 h, pH 6.5, read-out: fraction (%) of viable cells. Here is the method: as §1
The subject of a further experiment is H1975 cells. The class given is cell-based. To be noted: H1975 cells expressing EC-GFP, Metformin for 48 hours. The text has this: FIG. 1: Treatment with Metformin and combined preparations causes an intracellular pH drop in cancer cell lines. Intracellular pH measurements were done in cells expressing a pH sensitive variant of GFP (EC-GFP). Live cells were imaged at 405 nm and 488 nm excitation wavelengths to record control and pH-sensitive emissions, correspondingly. Eight biological replicates were done for each treatment. Error bars correspond to mean values±s.d.; P≤0.0001. a. […] Confocal microscopy of H1975 and HEK293 live cells expressing EC-GFP treated with Metformin for 48 hours. To rule out a possibility that GFP signal fading is due to degradation, after exposure to the drug, cells were transferred to media with pH 8.8 supplemented with 5 μM Nigericin for 30 minutes before re-imaging (Metformin pH 8.8 rescue). b, c. […] Intracellular pH measurements were done after cells were treated alone or in combination with Rotenone or/and Nigericin, and with Papaverine or/and Salinomycin for 27 or 48 hours in pH 6.5 buffer, as indicated.
Intracellular pH in indicated cancer cell lines and non-cancer 293T cells was measured using cell lines stabile expressing pH sensitive EC-GFP at two different excitation wave length to obtain 488 nm/405 nm ratios. […] 488/405 ratios were quantified using ImageJ (NIH) software.

The test system of experiment [1] is Sox4. It counts as cell-based. To be noted: Metformin 72 hours.
Protocol: Cells were densely seeded on 6-well plates. Starting on the following day, cells were treated with indicated drug combinations for 48 h in conditions imitating tumor environment: RPMI supplemented with 10% FCS and 20 mM PIPES, adjusted to pH 6.5. For non-cancer HEK293Tcells, non modified RPMI medium supplemented with 10% FCS was used. Cells were extracted only in Triton lysis buffer (as in example 3) and analyzed in Western Blot.
Cells were treated with combined preparations (Nigericin 10 nM, Rotenone 5 nM, Papaverine HCl 1 μm; Salinomycin 10 nM) with or without addition of NAC (N-acetyl cysteine) 1 mM, DOX (Doxycycline) and Minocycline 20 μM, Trolox (soluble form of vitamin E) 100 μM.
For experiment [2], the system named is Sox4. It counts as cell-based. To be noted: non-malignant HEK293t cells, Metformin 72 hours. Here is the method:
(§2) For gene expression measurement, cells were seeded in 6 well plates. On the following day, cells were treated with 6 mM Metformin for 48 h in normal RPMI medium supplemented with 10% FCS. Cells were harvested using Trypsin/EDTA and divided in up to 3 aliquots. A first aliquot was used for RNA preparation using RNeasy kit (Qiagen) and subsequent quantitative reverse transcription-PCR (qRT-PCR) analysis with LC480 LightCycler (Roche). A second aliquot was extracted with Saponin buffer (0.05% Saponin, 1 mM MgCl2, 1×TBS, 2 mM ME, 1× protein inhibitor cocktail (Roche) for obtaining cytoplasmic protein fraction. This fraction was used for b-catenin protein detection. Third aliquot was extracted with Triton lysis buffer ((TBS (50 mM Tris pH7.4, 150 mM NaCl, 2.7 mM KCl), 1% Triton X-100, 2 mM β-mercaptoethanol (ME), 1 mM MgCl2, 10 mM sodium pyrophosphate, 10 mM NaF, 1× proteinase inhibitor cocktail). This aliquot was used for Sox4 and a-tubulin (control) protein detection. For second and third aliquots 20-35 μl of buffer was used for 500 000 cells. After centrifugation extracts were used for Western blot analysis.
Experiments were done as in example 3. Cells were densely seeded on 6-well plates. […] For non-cancer HEK293Tcells, non modified RPMI medium supplemented with 10% FCS was used. Cells were extracted only in Triton lysis buffer (as in example 3) and analyzed in Western Blot.

A further experiment relates to Wnt signaling pathway. The class given is cell-based. To be noted: cancer cell lines (FIG. 2A), 6 mM Metformin. Here is the method: as §2
Experiment was done as in example 3. […] CHOP protein was detected in Triton lysis buffer extract.

Like-named read-outs stand apart in the source and are kept apart here.

`CN(C)C(=N)N=C(N)N` [Metformin]: the viability at 750 µM with Mouse melanoma B16F10 (pH 6.5, read-out: fraction (%) of viable cells, Metformin 750 μM, Monensin 0.00 nM, pH 6.5) came out at 80%. In addition, the viability at 1500 µM in the experiment with Mouse melanoma B16F10 (pH 6.5, read-out: fraction (%) of viable cells, Metformin 1500 μM, Monensin 0.00 nM, pH 6.5) came out at 84%. For the same compound, the viability at 3000 µM in the experiment on Mouse melanoma B16F10 (pH 6.5, read-out: fraction (%) of viable cells, Metformin 3000 μM, Monensin 0.00 nM, pH 6.5) amounted to 9%. Also, in the experiment with Lung cancer H1975, the viability at 94 µM is 84%, the viability at 188 µM turned out to be 70% and the viability at 375 µM amounted to 45%. Further, the “intracellular pH” value with H1975 cells was “causes intracellular acidification”. Moreover, the “expression of endogenous Sox4” value with Sox4 [1] (DLD1 and HCT116 cells) is listed as “inhibits expression of endogenous Sox4”. The “Wnt-inducible Sox4 expression” value in the experiment with Sox4 [1] (H1703 and H1299 cells, Wnt3a conditioned media 48 hours) is listed as “inhibits Wnt-inducible Sox4”. Moreover, the “expression of endogenous Sox4” value in the experiment on Sox4 [1] (H1975 cells) was “inhibits expression of endogenous Sox4”. Moreover, in the experiment with Sox4 [2], the “expression of Sox4” value is given as “has no effect on Sox4”. For the same compound, in the experiment on Wnt signaling pathway, the “wnt signaling (Axin2 mRNA, cytoplasmic b-catenin)” value is listed as “wnt signaling inhibitor”.
